This note sets out measurements from US20240025849A1 (MAX DELBRÜCK-CENTRUM FÜR MOLEKULARE MEDIZIN IN DER …, priority 2020, published 2024).

Entries after “also recorded” stand apart in the source; their conditions may differ.

One series concerns iNOS mRNA. The experiment in a line: Quantitative PCR of iNOS mRNA in microglia. The conditions noted are these: 2.5 μM C1. The class given is cell-based, mouse. How it is done: Quantitative PCR. The same stimulation protocol as for the Flow cytometry-based phagocytosis assay was applied. Cells were seeded overnight, treated with 2.5 μM C1 in DMSO, 125×10^−5 v/v DMSO respectively, or plain medium only for 1 hour, followed by an additional stimulation with 1 μg/ml LPS for 24 hours. Total RNA was isolated using the RNeasy Plus Mini Kit (Qiagen, Hilden, Germany). On-column DNase 1 (Qiagen) digestion was performed and total RNA was eluted in RNase-free water. RNA yield was measured using a Nanodrop 1000 (Thermo Fisher Scientific) spectrophotometer and quality was assessed using an Agilent 2100 Bioanalyzer (Agilent, Santa Clara, USA). Samples were stored at −80° C. until further use. First-strand cDNA synthesis was done with the SuperScript II reverse transcriptase (Thermo Fisher Scientific) using oligo-dT primers12-18 (Invitrogen) according to the manufacturer's instructions. Quantitative real-time PCR (qRT PCR) reactions were performed in a 7500 Fast Real-Time thermocycler (Thermo Fisher Scientific) using the SYBR Select Master Mix (Thermo Fisher Scientific) according to the manufacturer's instructions. cDNA input ranged between 1 and 5 ng/μl of total RNA transcribed into cDNA. The expression results were normalized to the expression of PActin of the same sample.

Series [1] concerns primary cultured neonatal microglia. In words: LPS induced NO release, HTS setup (Griess reagent). The class given is cell-based. The conditions noted are these: Mus musculus, 1 h pre-treatment, 1 μg/ml LPS 48 h, read-out: IC50, LPS-induced production of NO. On the procedure:
Primary cultured neonatal microglia. For preparation of cultured neonatal microglia, P0-P3 mice were used. 10 brains were extracted, meninges and cerebellum were removed and put on ice with Hank's balanced salt solution (HBSS). The dissected brains were washed 3 times before adding 400 μL trypsin (0.1 mg/L) and DNAse (5 μg/L) in phosphate buffered saline (PBS). After 2 min of incubation with this solution, the reaction was blocked by adding plain medium. After removal of the medium, 1 mg DNAse was added and the cells were mechanically dissociated, with a Pasteur pipette followed by a glass pipette. The cells were centrifuged for 10 min at 129 g at 4° C. The supernatant was discarded. The pellet was resuspended in plain medium and plated (2.5 brains/flask) in Poly-L-Lysine coated flasks. […]
High throughput screening (HTS). […] Incubation with LPS and compounds was continued for 48 hours, followed by addition of 25 μl of 2-fold concentrated Griess reagent and absorbance reading at 540 nm in a plate reader (Safire2, Tecan, Maennedorf, Switzerland). Active compounds were identified by decreased Z-scores of the absorbance signal. […]
Concentration-dependent validation and viability determination. […] Each concentration was measured in duplicate. […] Finally, the resorufin fluorescence was detected at an excitation wavelength of 530 nm and emission of 570 nm. […]

Series [2] has the same test system. In words: Cytokine release (IL1β, IL6, TNFα) ELISA in microglia. The series is classed as cell-based, mouse. On the procedure:
Primary cultured neonatal microglia. For preparation of cultured neonatal microglia, P0-P3 mice were used. 10 brains were extracted, meninges and cerebellum were removed and put on ice with Hank's balanced salt solution (HBSS). The dissected brains were washed 3 times before adding 400 μL trypsin (0.1 mg/L) and DNAse (5 μg/L) in phosphate buffered saline (PBS). After 2 min of incubation with this solution, the reaction was blocked by adding plain medium. After removal of the medium, 1 mg DNAse was added and the cells were mechanically dissociated, with a Pasteur pipette followed by a glass pipette. The cells were centrifuged for 10 min at 129 g at 4° C. The supernatant was discarded. The pellet was resuspended in plain medium and plated (2.5 brains/flask) in Poly-L-Lysine coated flasks. The cells were washed after 2 days with PBS and incubated for another 7 days in plain medium. Afterwards the medium was replaced by plain medium with 33% L929 conditioned medium. After 2 days, cells were harvested by shaking them for 30 min at 150 rpm. The supernatant was centrifuged for 10 min at 129 g at 4° C. The cells were plated into a 96 well plate (100 000 cells/well, 200 μL medium per well). This procedure could be repeated 2 times with a 2 day interval.
Enzyme-linked immunosorbent assay (ELISA). Cells were seeded according to the protocols described above, after compounds and stimuli were added, the supernatant was collected, centrifuged (500 g, 5 minutes) and stored at −20° C. until analysed. The following kits from Bio-Techne (Minneapolis, USA) were used to detect IL1β, IL6 and TNFα: ELISA Mouse IL-1β/IL-1F2 Duo Set, ELISA Mouse IL-6, ELISA Mouse TNFα. ELISA assays were performed according to the manufacturers protocol.
A general note: ELISA stands for enzyme-linked immunosorbent assay.

Series [3] is described as follows: Intravenous pharmacokinetic study in mice (blood plasma).
Description: Intravenous Pharmacokinetic Study in Mice. The intravenous pharmacokinetic study in mice was carried out by the company Touchstone Biosciences (Plymouth Meeting, USA) according to their standard procedures. In brief, 3 male adult mice of the CD-1 strain were fasted overnight. 5 mg/kg compound was given intravenously in one shot.
A short description of series [4]: Intravenous tissue distribution study in mice. The series is classed as in vivo, mouse.
Setting [5] is: 1 h C1, then 1 μg/ml LPS 48 hours.
Where [6] appears, read: unstimulated microglia, 48 hours.

Usually IC50 stands for the concentration that inhibits the measured activity by half. For `COc1ccc(NC(=O)C(NC(=O)C2CCCN2C(=O)OCc2ccccc2)c2ccc(OC)cc2)cc1` (stereo not shown) [C1], the “iNOS mRNA level, basal conditions” value with iNOS mRNA was “no significant effect; also recorded: did not change”. The “iNOS mRNA level after LPS stimulation” value in the series on iNOS mRNA (1 μg/ml LPS 24 hours) is reported as “did not change mRNA significantly”. The IC50 in series [1] is 224 nM. The “LPS induced IL1β release” value in series [2] (0.025, 0.25, 2.5 μM C1, 1 μg/ml LPS 48 hours) is reported as “exceeded the LPS-induced release; also recorded: exceeds the stimulated control significantly”. Besides, in series [2] (setting [5]), the “LPS induced IL6 release” value was “no effect; also recorded: did not show a reduction” and the “LPS induced TNFα release” value was “no effect; also recorded: did not show a reduction”. Also, in series [2] (setting [6]), the “IL1β release, C1 alone” value is “did not show any significant changes; also recorded: does not alter”; the “IL6 release, C1 alone” value is reported as “did not show any significant changes; also recorded: does not alter”; the “TNFα release, C1 alone” value is “did not show any significant changes; also recorded: does not alter”. In series [3] (5 mg/kg intravenous, 3 mice), the “survival / health issues within 24 hours” value was “All mice survived; also recorded: no health issues were reported and all mice survived”. The “concentration in blood plasma” value in series [3] (5 min after 5 mg/kg intravenous, CD-1 male mice) is 12 µM. Besides, in series [3] (male, CD-1, mouse, plasma, intravenous, 5 mg/kg, concentration in blood plasma, 5 min after 5 mg/kg intravenous, CD-1 male mice), the concentration at 5 min is 11.9 µM. Moreover, the concentration at 24 h in series [3] (male, CD-1, mouse, plasma, intravenous, 5 mg/kg, concentration in blood plasma, 24 hours after 5 mg/kg intravenous, CD-1 male mice) was determined as 0.00126 µM. Besides, the “passage of the blood brain barrier” value in series [4] (5 mg/kg intravenous) was “passes the blood brain barrier”. The concentration in brain in series [4] (30 minutes after 5 mg/kg intravenous) turned out to be 1 μM/g tissue. Also, the concentration in brain in series [4] (4 hours after 5 mg/kg intravenous) came out at 2.4 nM/g tissue.
